Target: T1, NKCC1 (Homo sapiens, UniProt P55011)
T1 construct: endogenous in cells; host or cells: native HEK293 cells
T1 sequence (P55011 1-1212): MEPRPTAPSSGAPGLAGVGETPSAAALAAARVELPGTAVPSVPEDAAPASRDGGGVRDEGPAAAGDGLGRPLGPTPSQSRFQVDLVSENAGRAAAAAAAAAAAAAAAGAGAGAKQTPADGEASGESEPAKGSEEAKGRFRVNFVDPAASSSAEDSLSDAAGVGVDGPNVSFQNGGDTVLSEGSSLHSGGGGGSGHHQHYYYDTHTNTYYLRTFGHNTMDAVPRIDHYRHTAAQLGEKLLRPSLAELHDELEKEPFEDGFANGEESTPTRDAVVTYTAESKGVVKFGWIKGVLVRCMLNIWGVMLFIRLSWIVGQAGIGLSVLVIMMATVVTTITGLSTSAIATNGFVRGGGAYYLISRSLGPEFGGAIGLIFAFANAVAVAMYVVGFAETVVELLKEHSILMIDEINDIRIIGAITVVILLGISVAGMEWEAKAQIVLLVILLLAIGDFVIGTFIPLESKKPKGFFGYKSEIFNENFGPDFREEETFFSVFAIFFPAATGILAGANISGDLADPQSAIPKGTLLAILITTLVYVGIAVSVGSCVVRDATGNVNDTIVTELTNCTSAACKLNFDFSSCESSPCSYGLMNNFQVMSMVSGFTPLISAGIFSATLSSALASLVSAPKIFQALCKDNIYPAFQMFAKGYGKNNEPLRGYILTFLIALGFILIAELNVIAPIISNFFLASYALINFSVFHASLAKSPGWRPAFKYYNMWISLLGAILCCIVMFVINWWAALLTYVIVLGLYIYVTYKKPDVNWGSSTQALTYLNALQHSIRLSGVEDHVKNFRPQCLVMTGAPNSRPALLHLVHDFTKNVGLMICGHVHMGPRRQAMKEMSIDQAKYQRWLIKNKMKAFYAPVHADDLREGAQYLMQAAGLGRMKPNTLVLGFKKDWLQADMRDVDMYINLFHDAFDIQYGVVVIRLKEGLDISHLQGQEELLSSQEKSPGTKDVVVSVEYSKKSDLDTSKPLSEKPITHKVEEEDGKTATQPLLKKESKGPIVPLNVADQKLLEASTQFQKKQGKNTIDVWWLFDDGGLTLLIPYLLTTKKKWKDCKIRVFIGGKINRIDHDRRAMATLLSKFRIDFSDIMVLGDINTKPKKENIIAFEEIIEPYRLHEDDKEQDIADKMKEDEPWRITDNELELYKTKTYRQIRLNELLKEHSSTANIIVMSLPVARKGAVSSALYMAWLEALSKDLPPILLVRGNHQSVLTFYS
Assay: NKCC1-mediated K+ influx (83Rb tracer uptake) in native HEK293 cells, hypertonic saline, 100 μM ouabain
Type: cell-based
Conditions: HEK293, no drug = 1000, 20 μM bumetanide = 0; for inhibition at 2 µM: read-out: NKCC1 mediated flux inhibition at 2 μM (%); for inhibition at 20 µM: read-out: NKCC1 mediated flux inhibition at 20 μM (%)
How it was run: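 Native cells in slightly hypertonic saline with 100 μM ouabain; 15 min preincubation then 15 min 83Rb uptake (0.25 μCi/mL), scintillation counting normalized to protein. Compounds at 2 μM and 20 μM; flux scaled 1000 (no drug) to 0 (20 μM bumetanide), triplicate dishes.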

Row | inhibition at 2 µM [%] | inhibition at 20 µM [%] | Compound
1 | 30 to 50 | ≥ 75 | CCCCNc1cc(C(=O)O)cc(S(=N)(=O)Nc2nccs2)c1Oc1ccccc1 (centres unmarked) [Compound 90, 3-(butylamino)-4-phenoxy-5-[(thiazol-2-ylamino)sulfonimidoyl]benzoic acid]
2 | 30 to 50 | ≥ 75 | CCCCNc1cc(C(=O)O)cc(S(=N)(=O)Nc2ccncc2)c1Oc1ccccc1 (centres unmarked) [Compound 91, 3-(butylamino)-4-phenoxy-5-[(4-pyridylamino)sulfonimidoyl]benzoic acid]
3 | 10 to 30 | 50 to 75 | CCCCNc1cc(C(=O)O)cc(S(=N)(=O)NC2CCN(C(C)=O)CC2)c1Oc1ccccc1 (centres unmarked) [Compound 92, 3-[[(1-acetyl-4-piperidyl)amino]sulfonimidoyl]-5-(butylamino)-4-phenoxy-benzoic acid]
4 | 30 to 50 | ≥ 75 | CCCCNc1cc(C(=O)O)cc(S(=N)(=O)Nc2ccnnc2)c1Oc1ccccc1 (centres unmarked) [Compound 93, 3-(butylamino)-4-phenoxy-5-[(pyridazin-4-ylamino)sulfonimidoyl]benzoic acid]
5 | 50 to 75 | ≥ 75 | CCCCNc1cc(C(=O)O)cc(S(=N)(=O)NCCCC)c1Oc1ccccc1 (centres unmarked) [Compound 94, 3-(butylamino)-5-(butylaminosulfonimidoyl)-4-phenoxy-benzoic acid]
6 | 30 to 50 | 30 to 50 | CCCCNc1cc(C(=O)O)cc(S(=N)(=O)NC23CC(C2)C3)c1Oc1ccccc1 (centres unmarked) [Compound 95, 3-[(1-bicyclo[1.1.1]pentanylamino)sulfonimidoyl]-5-(butylamino)-4-phenoxy-benzoic acid]
7 | 30 to 50 | 30 to 50 | CCCCNc1cc(C(=O)O)cc(S(=N)(=O)NC2CN3CCC2CC3)c1Oc1ccccc1 (centres unmarked) [Compound 96, 3-(butylamino)-4-phenoxy-5-[(quinuclidin-3-ylamino)sulfonimidoyl]benzoic acid]
8 | 30 to 50 | ≥ 75 | CCCCNc1cc(C(=O)O)cc(S(=N)(=O)NCC2CCN(C(C)=O)CC2)c1Oc1ccccc1 (centres unmarked) [Compound 97, 3-[[(1-acetyl-4-piperidyl)methylamino]sulfonimidoyl]-5-(butylamino)-4-phenoxy-benzoic acid]
9 | 30 to 50 | 10 to 30 | CCCCNc1cc(C(=O)OC)cc(S(=O)(=Nc2ccccc2)N2CCCCCC2)c1Oc1ccccc1 (stereo not drawn) [Compound 99, methyl 3-[S-(azepan-1-yl)-N-phenyl-sulfonimidoyl]-5-(butylamino)-4-phenoxy-benzoate]
10 |  | 30 to 50 | CCCCNc1cc(C(=O)O)cc(S(=O)(=NC)N(C)CC)c1Oc1ccccc1 (stereo not drawn) [Compound 100, 3-(butylamino)-5-[S-[ethyl(methyl)amino]-N-methyl-sulfonimidoyl]-4-phenoxybenzoic acid]

More lines, now with the values behind:

Row | Compound | inhibition at 2 µM [%] | inhibition at 20 µM [%]
11 | CCCCNc1cc(C(=O)O)cc(S(=N)(=O)N2Cc3ccccc3C2)c1Oc1ccccc1 (centres unmarked) [Compound 72, 3-(butylamino)-5-(isoindolin-2-ylsulfonimidoyl)-4-phenoxy-benzoic acid] | 50 to 75 | ≥ 75
12 | CCCCNc1cc(C(=O)O)cc(S(=N)(=O)Nc2cnccn2)c1Oc1ccccc1 (centres unmarked) [Compound 73, 3-(butylamino)-4-phenoxy-5-[(pyrazin-2-ylamino)sulfonimidoyl]benzoic acid] | ≥ 75 | ≥ 75
13 | CCCCNc1cc(C(=O)O)cc(S(=N)(=O)Nc2cccc(OC(F)F)c2)c1Oc1ccccc1 (centres unmarked) [Compound 74, 3-(butylamino)-5-[[3-(difluoromethoxy)anilino]sulfonimidoyl]-4-phenoxy-benzoic acid] | 50 to 75 | ≥ 75
14 | CCCCNc1cc(C(=O)O)cc(S(=N)(=O)NC2CCOCC2)c1Oc1ccccc1 (centres unmarked) [Compound 75, 3-(butylamino)-4-phenoxy-5-[(tetrahydropyran-4-ylamino)sulfonimidoyl]benzoic acid] |  | 30 to 50
15 | CCCCNc1cc(C(=O)O)cc(S(=N)(=O)Nc2ncccn2)c1Oc1ccccc1 (centres unmarked) [Compound 76, 3-(butylamino)-4-phenoxy-5-[(pyrimidin-2-ylamino)sulfonimidoyl]benzoic acid] | 10 to 30 | 50 to 75
16 | CCCCNc1cc(C(=O)O)cc(S(=N)(=O)Nc2ccccc2Cl)c1Oc1ccccc1 (centres unmarked) [Compound 77, 3-(butylamino)-5-[(2-chloroanilino)sulfonimidoyl]-4-phenoxy-benzoic acid] | 30 to 50 | ≥ 75
17 | CCCCNc1cc(C(=O)O)cc(S(=N)(=O)Nc2ccc(Cl)cc2)c1Oc1ccccc1 (centres unmarked) [Compound 78, 3-(butylamino)-5-[(4-chloroanilino)sulfonimidoyl]-4-phenoxy-benzoic acid] | 50 to 75 | ≥ 75
18 | CCCCNc1cc(C(=O)O)cc(S(=N)(=O)NC2CCN(C)CC2)c1Oc1ccccc1 (centres unmarked) [Compound 79, 3-(butylamino)-5-[[(1-methyl-4-piperidyl)amino]sulfonimidoyl]-4-phenoxy-benzoic acid] | 30 to 50 | 50 to 75
19 | CCCCNc1cc(C(=O)O)cc(S(=N)(=O)Nc2cncnc2)c1Oc1ccccc1 (centres unmarked) [Compound 80, 3-(butylamino)-4-phenoxy-5-[(pyrimidin-5-ylamino)sulfonimidoyl]benzoic acid] | 30 to 50 | ≥ 75
20 | CCCCNc1cc(C(=O)O)cc(S(=N)(=O)NCCc2ccccc2)c1Oc1ccccc1 (centres unmarked) [Compound 81, 3-(butylamino)-4-phenoxy-5-[(2-phenylethylamino)sulfonimidoyl]benzoic acid] | 30 to 50 | ≥ 75
21 | CCCCNc1cc(C(=O)O)cc(S(=N)(=O)NCCc2cccc(Cl)c2)c1Oc1ccccc1 (centres unmarked) [Compound 82, 3-(butylamino)-5-[[2-(3-chlorophenyl)ethylamino]sulfonimidoyl]-4-phenoxy-benzoic acid] | 10 to 30 | ≥ 75
22 | CCCCNc1cc(C(=O)O)cc(S(=N)(=O)NCc2cccnc2)c1Oc1ccccc1 (centres unmarked) [Compound 83, 3-(butylamino)-4-phenoxy-5-[(3-pyridylmethylamino)sulfonimidoyl]benzoic acid] | 30 to 50 | ≥ 75
23 | CCCCNc1cc(C(=O)O)cc(S(=N)(=O)NCCc2cccnc2)c1Oc1ccccc1 (centres unmarked) [Compound 84, 3-(butylamino)-4-phenoxy-5-[[2-(3-pyridyl)ethylamino]sulfonimidoyl]benzoic acid] | 10 to 30 | ≥ 75
24 | CCCCNc1cc(C(=O)O)cc(S(=N)(=O)NCc2nccs2)c1Oc1ccccc1 (centres unmarked) [Compound 85, 3-(butylamino)-4-phenoxy-5-[(thiazol-2-ylmethylamino)sulfonimidoyl]benzoic acid] | 30 to 50 | ≥ 75
25 | CCCCNc1cc(C(=O)O)cc(S(=N)(=O)NCCc2nccs2)c1Oc1ccccc1 (centres unmarked) [Compound 86, 3-(butylamino)-4-phenoxy-5-[(2-thiazol-2-ylethylamino)sulfonimidoyl]benzoic acid] | 50 to 75 | ≥ 75
26 | CCCCNc1cc(C(=O)O)cc(S(=N)(=O)NCc2ccn(C)n2)c1Oc1ccccc1 (centres unmarked) [Compound 87, 3-(butylamino)-5-[[(1-methylpyrazol-3-yl)methylamino]sulfonimidoyl]-4-phenoxy-benzoic acid] | 50 to 75 | ≥ 75
27 | CCCCNc1cc(C(=O)O)cc(S(=N)(=O)Nc2nccn2C)c1Oc1ccccc1 (centres unmarked) [Compound 88, 3-(butylamino)-5-[[(1-methylimidazol-2-yl)amino]sulfonimidoyl]-4-phenoxy-benzoic acid] |  | 50 to 75
28 | CCCCNc1cc(C(=O)O)cc(S(=N)(=O)Nc2ccccn2)c1Oc1ccccc1 (centres unmarked) [Compound 89, 3-(butylamino)-4-phenoxy-5-[(2-pyridylamino)sulfonimidoyl]benzoic acid] | 30 to 50 | ≥ 75
